Assay results: US20250296959A1, “B7-H3 TARGETING PEPTIDES AND CONSTRUCTS THEREOF” (Mariana Oncology Inc., priority 2024, published 2025)
pKd: −log10 of the molar value. Where two headings read alike, the source gives them in different places. Starred links: 1 amine or outer side, 2 acyl side, 3 side chain; linkers in the order of their positions; H or OH if unused. Positions of bridges follow the written chain, without caps; N, C: chain ends. Non-standard residues stand in square brackets, D forms with d. Residues, ends and D or L forms follow the SMILES beside them. Groups on a side chain read outwards from the residue. *: point of attachment. X2 = O=C(O)CN1CCN(CC(=O)O)CCN(CC(=O)NCCOCCOCCOCCOCC(=O)*)CCN(CC(=O)O)CC1; Ala(piperidin-4-yl) = O=C([C@H](CC1CCN([*:3])CC1)N[*:1])[*:2]; DOTA = O=C(O)CN1CCN(CC(=O)O)CCN(CC(=O)*)CCN(CC(=O)O)CC1; Phe(4-COOH) = N[C@@H](Cc1ccc(C(=O)O)cc1)C(=O)O; Trp(5-F) = N[C@@H](Cc1c[nH]c2ccc(F)cc12)C(=O)O; γGlu = O=C(O)[C@H](CCC(=O)[*:2])N[*:1]; 1Nal = N[C@@H](Cc1cccc2ccccc12)C(=O)O; Ala(4-THP) = N[C@@H](CC1CCOCC1)C(=O)O; Val(3-OH) = CC(C)(O)[C@H](N)C(=O)O; 4Pal = N[C@@H](Cc1ccncc1)C(=O)O; Tle = CC(C)(C)[C@H](N)C(=O)O; hLeu = CC(C)CC[C@H](N)C(=O)O

How the values were obtained:
[1] = test system: Calu-6 cell line; test: Cell associated (bound) fraction of [177Lu]Lu-labeled peptide in Calu-6 cells; type: cell-based, Human; conditions: 1 hour, 37° C.
Method: (§1) [^177Lu]LuCl3 was received from venders in HCl solution. For every mCi of [^177Lu]LuCl3 added to the reaction vial (1.5 mL Eppendorf vial), ammonium acetate buffer (0.2 M, pH 4.9, 100 μL, containing 1% w/v ascorbic acid and 6% v/v ethanol) and peptide conjugate (1 nmol) was added. The pH of the solution was determined to be approximately 5 by using pH strips. The reaction vial was incubated at 80° C., 700 RPM for 17-20 minutes. A sample from the reaction was analyzed by RP-HPLC using an Agilent Infinity II 1260 HPLC to determine reaction completion and radiochemical purity. HPLC conditions: Waters XBridge BEH C18 Column, 130 Å, 3.5 μm, 4.6 mm×250 mm; mobile phase: Solvent A=water (with 0.1% formic acid), solvent B=acetonitrile (with 0.1% formic acid). Gradients: 25-45% B in 10 minutes, 45-65% B in 12 minutes, 65-90% in 6 minutes at a flow rate of 0.5 mL/minute. Required amounts of the product were formulated in 1% PBSA for cell studies.
(§2) The study was conducted using Calu-6 cell line (Table 8)
(§3) Adherent cell studies: The cells were cultured in appropriate culture media (20 mL) in tissue culture treated T150 flasks at 37° C. and 5% CO2. Adherent cells were detached (60-70% confluent) using 5 mL Versene at 37° C. for 3 minutes. After confirming the viability using countess and count of detached cells using Trypan blue, the cells were centrifuged at 4° C. for 5 minutes (1,000 revolutions per minute). The cell pellet obtained was washed once with PBS and resuspended in 1% PBSA to obtain the desired cell concentration (5 million cells/mL).
Cell associated fraction: Cells were incubated with 300 μL (0.8 μCi) of the incubation buffer (containing radiolabeled peptide [^177Lu]Lu-test peptide) for 1 hour at 37 C (Table 9). Post incubation, the cells were pelleted and washed 2 times using cold PBS+1% BSA. The supernatant and washes were combined and counted together as “unbound fraction” in a gamma counter. The cells were then resuspended in 300 μL of 1% PBS+1% BSA and counted in the gamma counter as cell associated fraction (or bound fraction).
(§4) Calu-6 Cells are Human-Derived, Non-Engineered Lung Cancer Cell that Express B7-H3.

[2] = test system: Calu-6 cell line; test: Net internalization of [177Lu]Lu-labeled peptide in Calu-6 cells; type: cell-based, Human; conditions: 1 hour, 37° C., glycine pH 2.5 acid wash
Method: as §1, §2, §3
Net internalization: The resuspended cells in 300 μl of 1% PBSA and counted in the gamma counter as “bound fraction” were collected in 1.5 mL Eppendorf tube and pelleted. The pelleted cells were incubated with 300 μl of 50 mM Glycine pH=2.5 for 3 minutes and then pelleted discarding the supernatant. This process was repeated one more time. The pelleted cells were washed with 300 μl of cold 1% PBSA and then resuspended in 300 μl 0.3 M NaOH. This was counted in the gamma counter as “internalized fraction”.
as §4

[3] = biological target: T1, human 4lg B7-H3 (Homo sapiens, UniProt Q5ZPR3); test: Affinity determination by surface plasmon resonance (SPR) to 4Ig B7-H3; conditions: 4Ig B7-H3
T1 sequence (Q5ZPR3 29-534): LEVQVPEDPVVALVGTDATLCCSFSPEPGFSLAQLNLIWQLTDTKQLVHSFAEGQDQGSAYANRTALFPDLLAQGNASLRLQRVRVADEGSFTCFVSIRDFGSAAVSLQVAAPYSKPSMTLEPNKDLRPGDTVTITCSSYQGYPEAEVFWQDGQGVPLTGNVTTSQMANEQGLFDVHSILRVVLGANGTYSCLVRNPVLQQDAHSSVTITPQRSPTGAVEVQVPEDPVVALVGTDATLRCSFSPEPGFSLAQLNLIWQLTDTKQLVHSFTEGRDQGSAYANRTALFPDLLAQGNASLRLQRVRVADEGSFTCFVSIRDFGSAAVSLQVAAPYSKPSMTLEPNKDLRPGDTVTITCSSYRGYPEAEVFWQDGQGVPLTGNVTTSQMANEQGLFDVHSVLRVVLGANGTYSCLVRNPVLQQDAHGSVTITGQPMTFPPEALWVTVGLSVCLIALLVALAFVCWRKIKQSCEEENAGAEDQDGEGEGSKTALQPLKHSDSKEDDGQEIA

[4] = SPR KD—25° C., 25° C. flow cell temperature
[5] = read-out: SPR KD—25° C., 25° C. flow cell temperature

| Compound | % cell associated fraction [1] | % net internalization [2] | pKd [3, 4] | pKd ([3]; SPR KD—37° C., 37° C. flow cell temperature) | pKd [3, 5] | pKd ([3]; read-out: SPR KD—37° C., 37° C. flow cell temperature) |
| --- | --- | --- | --- | --- | --- | --- |
| CC[C@H](C)[C@@H]1NC(=O)[C@@H](NC(=O)[C@H](Cc2ccc(O)cc2)NC(=O)[C@H](CCC(C)C)NC(C)=O)CSSC[C@@H](C(=O)N[C@@H](Cc2c[nH]c3ccc(F)cc23)C(=O)N[C@@H](Cc2ccccc2)C(=O)N[C@H](C(N)=O)C(C)(C)O)NC(=O)[C@H](Cc2ccc(O)cc2)NC(=O)[C@H](C(C)C)NC(=O)[C@H](CC(=O)O)NC(=O)[C@H](Cc2ccncc2)NC(=O)[C@H](CCCCNC(=O)CN2CCN(CC(=O)O)CCN(CC(=O)O)CCN(CC(=O)O)CC2)NC(=O)CNC1=O [compound 230, Ac-hLeu-Y-C-Ile-G-Lys(DOTA)-4PyA-D-V-Y-C-5FW-F-hydroxyVal-CONH2] (Ac-[hLeu]YCIGK(DOTA)[4Pal]DVYC[Trp(5-F)]F[Val(3-OH)]-NH2; disulfide 3-11) | B (25<%≤50) | A (%≤25) | > 9.00 | – | – | – |
| CC(=O)N[C@@H](CCC(C)C)C(=O)N[C@@H](Cc1ccc(O)cc1)C(=O)N[C@H]1CSSC[C@@H](C(=O)N[C@@H](Cc2cccc3ccccc23)C(=O)N[C@@H](Cc2ccccc2)C(=O)N2CCC[C@H]2C(N)=O)NC(=O)[C@H](Cc2ccc(O)cc2)NC(=O)[C@H](C(C)C)NC(=O)[C@H](CC(=O)O)NC(=O)[C@H](Cc2ccncc2)NC(=O)[C@H](CCCCNC(=O)CC[C@H](NC(=O)CN2CCN(CC(=O)O)CCN(CC(=O)O)CCN(CC(=O)O)CC2)C(=O)O)NC(=O)CNC(=O)[C@H](C(C)(C)C)NC1=O [compound 252, Ac-hLeu-Y-C-Tbg-G-Lys(gE-DOTA)-4PyA-D-V-Y-C-1Nal-F-Pro-CONH2] (Ac-[hLeu]YC[Tle]GK([γGlu-DOTA])[4Pal]DVYC[1Nal]FP-NH2; disulfide 3-11) | B (25<%≤50) | A (%≤25) | 8.00 to 9.00 | – | – | – |
| CC(=O)N[C@@H](CCC(C)C)C(=O)N[C@@H](Cc1ccc(O)cc1)C(=O)N[C@H]1CSSC[C@@H](C(=O)N[C@@H](Cc2cccc3ccccc23)C(=O)N[C@@H](Cc2ccccc2)C(=O)N2CCC[C@H]2C(N)=O)NC(=O)[C@H](Cc2ccc(O)cc2)NC(=O)[C@H](C(C)C)NC(=O)[C@H](CC(=O)O)NC(=O)[C@H](Cc2ccncc2)NC(=O)[C@H](CCCCNC(=O)CC[C@H](NC(=O)CC[C@H](NC(=O)CN2CCN(CC(=O)O)CCN(CC(=O)O)CCN(CC(=O)O)CC2)C(=O)O)C(=O)O)NC(=O)CNC(=O)[C@H](C(C)(C)C)NC1=O [compound 253, Ac-hLeu-Y-C-Tbg-G-Lys(gE-gE-DOTA)-4PyA-D-V-Y-C-1Nal-F-Pro-CONH2] (Ac-[hLeu]YC[Tle]GK([γGlu-γGlu-DOTA])[4Pal]DVYC[1Nal]FP-NH2; disulfide 3-11) | A (%≤25) | A (%≤25) | 8.00 to 9.00 | – | – | – |
| CC(=O)N[C@@H](CCC(C)C)C(=O)N[C@@H](Cc1ccc(O)cc1)C(=O)N[C@H]1CSSC[C@@H](C(=O)N[C@@H](Cc2cccc3ccccc23)C(=O)N[C@@H](Cc2ccccc2)C(=O)N2CCC[C@H]2C(N)=O)NC(=O)[C@H](Cc2ccc(O)cc2)NC(=O)[C@H](C(C)C)NC(=O)[C@H](CC(=O)O)NC(=O)[C@H](Cc2ccncc2)NC(=O)[C@H](CCCCNC(=O)COCCOCCOCCOCCNC(=O)CN2CCN(CC(=O)O)CCN(CC(=O)O)CCN(CC(=O)O)CC2)NC(=O)CNC(=O)[C@H](C(C)(C)C)NC1=O [compound 256, Ac-hLeu-Y-C-Tbg-G-Lys(PEG4-DOTA)-4PyA-D-V-Y-C-1Nal-F-Pro-CONH2] (Ac-[hLeu]YC[Tle]GK(X2)[4Pal]DVYC[1Nal]FP-NH2; disulfide 3-11) | A (%≤25) | A (%≤25) | 8.00 to 9.00 | – | – | – |
| CC(=O)N[C@@H](CCC(C)C)C(=O)N[C@@H](Cc1ccc(O)cc1)C(=O)N[C@H]1CSSC[C@@H](C(=O)N[C@@H](Cc2cccc3ccccc23)C(=O)N[C@@H](Cc2ccccc2)C(=O)N2CCC[C@H]2C(=O)N[C@H](CCCCNC(=O)COCCOCCOCCOCCNC(=O)CN2CCN(CC(=O)O)CCN(CC(=O)O)CCN(CC(=O)O)CC2)C(N)=O)NC(=O)[C@H](Cc2ccc(O)cc2)NC(=O)[C@H](C(C)C)NC(=O)[C@H](CC(=O)O)NC(=O)[C@H](CC2CCOCC2)NC(=O)[C@H](CCCCN)NC(=O)CNC(=O)[C@H](C(C)(C)C)NC1=O [compound 259, Ac-hLeu-Y-C-Tbg-G-K-ThpA-D-V-Y-C-1Nal-F-Pro-dLys(PEG4-DOTA)-CONH2] (Ac-[hLeu]YC[Tle]GK[Ala(4-THP)]DVYC[1Nal]FP[dK](X2)-NH2; disulfide 3-11) | B (25<%≤50) | A (%≤25) | > 9.00 | 8.00 to 9.00 | – | – |
| CC(=O)N[C@@H](CCC(C)C)C(=O)N[C@@H](Cc1ccc(O)cc1)C(=O)N[C@H]1CSSC[C@@H](C(=O)N[C@@H](Cc2c[nH]c3ccc(F)cc23)C(=O)N[C@@H](Cc2ccccc2)C(=O)N2CCC[C@H]2C(=O)N[C@H](CCCCNC(=O)COCCOCCOCCOCCNC(=O)CN2CCN(CC(=O)O)CCN(CC(=O)O)CCN(CC(=O)O)CC2)C(N)=O)NC(=O)[C@H](Cc2ccc(O)cc2)NC(=O)[C@H](C(C)C)NC(=O)[C@H](CC(=O)O)NC(=O)[C@H](CC2CCOCC2)NC(=O)[C@H](CCCCN)NC(=O)CNC(=O)[C@H](C(C)C)NC1=O [compound 282, Ac-hLeu-Y-C-V-G-K-ThpA-D-V-Y-C-5FW-F-Pro-dLys(PEG4-DOTA)-CONH2] (Ac-[hLeu]YCVGK[Ala(4-THP)]DVYC[Trp(5-F)]FP[dK](X2)-NH2; disulfide 3-11) | B (25<%≤50) | A (%≤25) | > 9.00 | – | – | – |
| CC(=O)N[C@@H](CCC(C)C)C(=O)N[C@@H](Cc1ccc(O)cc1)C(=O)N[C@H]1CSSC[C@@H](C(=O)N[C@@H](Cc2c[nH]c3ccc(F)cc23)C(=O)N[C@@H](Cc2ccccc2)C(=O)N2CCC[C@H]2C(=O)N[C@H](CCCCNC(=O)CN2CCN(CC(=O)O)CCN(CC(=O)O)CCN(CC(=O)O)CC2)C(N)=O)NC(=O)[C@H](Cc2ccc(O)cc2)NC(=O)[C@H](C(C)C)NC(=O)[C@H](CC(=O)O)NC(=O)[C@H](Cc2ccc(C(=O)O)cc2)NC(=O)[C@H](CC2CCNCC2)NC(=O)CNC(=O)[C@H](C(C)C)NC1=O [compound 286, Ac-hLeu-Y-C-V-G-PipAla-4COOHPhe-D-V-Y-C-5FW-F-Pro-dLys(DOTA)-CONH2] (Ac-[hLeu]YCVG[Ala(piperidin-4-yl)][Phe(4-COOH)]DVYC[Trp(5-F)]FP[dK](DOTA)-NH2; disulfide 3-11) | C (%>50) | A (%≤25) | – | – | > 9.00 | 8.00 to 9.00 |
| CC(=O)N[C@@H](CCC(C)C)C(=O)N[C@@H](Cc1ccc(O)cc1)C(=O)N[C@H]1CSSC[C@@H](C(=O)N[C@@H](Cc2c[nH]c3ccc(F)cc23)C(=O)N[C@@H](Cc2ccccc2)C(=O)N2CCC[C@H]2C(=O)N[C@H](CCCCNC(=O)CN2CCN(CC(=O)O)CCN(CC(=O)O)CCN(CC(=O)O)CC2)C(=O)O)NC(=O)[C@H](Cc2ccc(O)cc2)NC(=O)[C@H](C(C)C)NC(=O)[C@H](CC(=O)O)NC(=O)[C@H](CC2CCOCC2)NC(=O)[C@H](CCCCN)NC(=O)CNC(=O)[C@H](C(C)C)NC1=O [compound 288, Ac-hLeu-Y-C-V-G-K-ThpA-D-V-Y-C-5FW-F-Pro-dLys(DOTA)-COOH] (Ac-[hLeu]YCVGK[Ala(4-THP)]DVYC[Trp(5-F)]FP[dK](DOTA)-OH; disulfide 3-11) | B (25<%≤50) | A (%≤25) | – | – | > 9.00 | – |
